Test results from patent publication US20210205196A1, “PRESERVED COMPOSITIONS” (Conopco, Inc., d/b/a UNILEVER, priority 2018, published 2021).

Key:
[1] = tested on: Gram Negative non-fermenting bacteria: Pseudomonas aeruginosa, Burkholderia cepacia, Strenotrophomonas sp; test: Modified Ph. Eur. 5.1.3 microbial challenge test in shampoo, Pool 1; type: cell-based
[2] = tested on: Gram Negative fermenting bacteria: Enterobacter cloacae, Klebsiella sp; test: Modified Ph. Eur. 5.1.3 microbial challenge test in shampoo, Pool 2; type: cell-based
[3] = 0.5% (w/w) acid in shampoo base, pH 5, 7 days
[4] = 0.5% (w/w) acid in shampoo base, pH 5, 14 days (reinoculated at 7 days)
[5] = 0.5% (w/w) acid in shampoo base, pH 5, 21 days (reinoculated at 7 and 14 days)
[6] = 0.5% (w/w) acid in shampoo base, pH 5, 28 days (reinoculated at 7 and 14 days)
[7] = 1.0% (w/w) acid in shampoo base, pH 5, 7 days
[8] = 1.0% (w/w) acid in shampoo base, pH 5, 14 days (reinoculated at 7 days)
[9] = 1.0% (w/w) acid in shampoo base, pH 5, 21 days (reinoculated at 7 and 14 days)
[10] = 1.0% (w/w) acid in shampoo base, pH 5, 28 days (reinoculated at 7 and 14 days)

For `CC(O)C(=O)O` (stereo not drawn) [Lactic acid, lactic acid], the “Microbial Log reduction” value [1, 3] was greater than 5.61 log, the “Microbial Log reduction” value [1, 4] was greater than 5.56 log and the “Microbial Log reduction” value [1, 5] was greater than 5.74 log. The “Microbial Log reduction” value [1, 6] was greater than 5.74 log, the “Microbial Log reduction” value [1, 7] was greater than 5.61 log and the “Microbial Log reduction” value [1, 8] was greater than 5.56 log. The “Microbial Log reduction” value [1, 9] was greater than 5.74 log, the “Microbial Log reduction” value [1, 10] was greater than 5.74 log and the “Microbial Log reduction” value [2, 3] was 3.93 log. For the same compound, the “Microbial Log reduction” value [2, 4] was greater than 5.69 log, the “Microbial Log reduction” value [2, 5] was greater than 5.80 log and the “Microbial Log reduction” value [2, 6] was greater than 5.80 log. For the same compound, the “Microbial Log reduction” value [2, 7] was greater than 5.88 log, the “Microbial Log reduction” value [2, 8] was greater than 5.69 log and the “Microbial Log reduction” value [2, 9] was greater than 5.80 log. For the same compound, the “Microbial Log reduction” value [2, 10] was greater than 5.80 log.
For `O=C(O)CC(O)(CC(=O)O)C(=O)O` [Citric acid, citric acid], the “Microbial Log reduction” value [1, 3] was greater than 5.61 log, the “Microbial Log reduction” value [1, 4] was 3.84 log and the “Microbial Log reduction” value [1, 5] was greater than 5.74 log. The “Microbial Log reduction” value [1, 6] was greater than 5.74 log, the “Microbial Log reduction” value [1, 7] was greater than 5.61 log and the “Microbial Log reduction” value [1, 8] was greater than 5.56 log. The “Microbial Log reduction” value [1, 9] was greater than 5.74 log, the “Microbial Log reduction” value [1, 10] was greater than 5.74 log and the “Microbial Log reduction” value [2, 3] was 4.88 log. The “Microbial Log reduction” value [2, 4] was greater than 5.69 log, the “Microbial Log reduction” value [2, 5] was greater than 5.80 log and the “Microbial Log reduction” value [2, 6] was greater than 5.80 log. The “Microbial Log reduction” value [2, 7] was 4.97 log, the “Microbial Log reduction” value [2, 8] was greater than 5.69 log and the “Microbial Log reduction” value [2, 9] was greater than 5.80 log. The “Microbial Log reduction” value [2, 10] was greater than 5.80 log.
For `C=C(CC(=O)O)C(=O)O` [Itaconic acid], the “Microbial Log reduction” value [1, 3] was greater than 5.68 log, the “Microbial Log reduction” value [1, 4] was greater than 5.56 log and the “Microbial Log reduction” value [1, 5] was greater than 5.74 log. The “Microbial Log reduction” value [1, 6] was greater than 5.74 log, the “Microbial Log reduction” value [1, 7] was greater than 5.61 log and the “Microbial Log reduction” value [1, 8] was greater than 5.56 log. The “Microbial Log reduction” value [1, 9] was greater than 5.74 log, the “Microbial Log reduction” value [1, 10] was greater than 5.74 log and the “Microbial Log reduction” value [2, 3] was greater than 5.88 log. The “Microbial Log reduction” value [2, 4] was greater than 5.69 log, the “Microbial Log reduction” value [2, 5] was greater than 5.80 log and the “Microbial Log reduction” value [2, 6] was greater than 5.80 log. For the same compound, the “Microbial Log reduction” value [2, 7] was greater than 5.88 log, the “Microbial Log reduction” value [2, 8] was greater than 5.69 log and the “Microbial Log reduction” value [2, 9] was greater than 5.80 log. For the same compound, the “Microbial Log reduction” value [2, 10] was greater than 5.80 log.
